Test results as given in US8318638B2, “Plant activator” (Shiseido Company, Ltd., priority 1999, dated 2012).

Experiments:
Type in all cases: in vivo
[1] = system: Oryza sativa L. (variety: koshihikari); experiment: Growth controlling effect on Oryza sativa L. seedlings (seed immersion)
Procedure: (1) Good-quality seeds of Oryza sativa L. (variety: koshihikari) (200 g) were immersed in water (800 mL) at 10° C. for 13 days. Thereafter, the seeds were equally divided into four groups, and the respective seed groups were immersed in specific ketol fatty acid (I) aqueous solutions (concentration: 0 μM, 1 μM, 10 μM, and 100 μM) (200 mL) at 30° C. for 1.5 days. The immersed seeds were planted in a four-divided seedbed tray, and grown under no light irradiation at 27° C. for three days. Subsequently, the grown seedlings were exposed to the typical outside environment. Six days after the exposure, 18 seedlings were randomly selected from each group, and the heights of the seedlings were measured, and then averaged. […] Subsequently, in consideration of practical handling of seedlings of Oryza sativa L., the effect of application of specific ketol fatty acid (I) was evaluated. […] In order to perform this evaluation, three weeks after the aforementioned light irradiation treatment, seedlings of each group were randomly selected, and the average of the proportions of the second leaves and third leaves was obtained. […] However, unlike the case of promotion of growth of the seedlings, the optimum concentration of the specific ketol fatty acid (I) aqueous solution is 1 μM.

[2] = system: morning glory (variety: murasaki); experiment: Growth promotion effect on morning glory; conditions: 100 μm aqueous solution sprayed; measured on the 16th day; N=8; FIG. 1
Procedure: Seeds of morning glory (variety: murasaki) (9 g) were subjected to concentrated sulfuric acid treatment for 20 minutes, and then allowed to stand under water flow overnight. Subsequently, the seeds were placed on wet sea sand such that the hila of the seeds were directed upward for 24 hours, to thereby produce roots. The seeds having roots were planted in sea sand at a position 1.5-2.0 cm below the surface of the sand, and then cultured under continuous light irradiation (for about five days).
The entire plant bodies of the morning glory having leaves produced through this culture were transferred into a culture solution [KNO2 (250 mg), NH4NO2 (250 mg), KH2PO4 (250 mg), MgSO4.7H2O (250 mg), MnSO4.4H2O (1 mg), Fe-citrate n-hydrate (6 mg), H3BO3 (2 mg), CuSO4.5H2O (0.1 mg), ZeSO4.7H2O (0.2 mg), Na2MoO4.2H2O (0.2 mg), and Ca(H2PO4)22H2O (250 mg) in distilled water (1,000 mL)].
Water or a 100 μm specific ketol fatty acid (I) aqueous solution was sprayed to the cultured morning glory, which was then placed in the dark overnight (for 14 hours). Thereafter, the morning glory was grown under continuous light irradiation at 25° C. for 16 days, and on the 16th day the height of the plant was measured (N=8). The average of the heights of the plants is shown in FIG. 1 [note: “I” shown in FIG. 1 refers to “specific ketol fatty acid (I)”; the same shall apply to the below-described Figs.].

Eustoma russellianum = experiment: Growth promotion effect on Eustoma russellianum
cyclamen = experiment: Growth promotion effect on cyclamen; conditions: 50 μm aqueous solution sprayed five consecutive days, four months after seeding; observed for 48 days; FIG. 5
Procedure: Four months after seeding of cyclamen, spraying of a 50 μm specific ketol fatty acid (I) aqueous solution was carried out for five consecutive days. […] The plant width and the number of leaves were both increased.

strawberry seedlings = experiment: Plant dormancy preventive test on strawberry
Procedure: When strawberry seedlings are exposed directly to low temperature conditions in winter, the seedlings enter dormancy, and growth of the seedlings is stopped. Whether or not the present plant activator exerts the effect of preventing dormancy was evaluated.
Specific ketol fatty acid (I) aqueous solutions [concentration: 10 μM, 100 μM, and 0 μM (control)] were applied through spraying to strawberry seedlings on August 27 (at day 0), September 3, and September 8. […] In the control group, no flower bud formation was observed.
At the one hundred and eighth day, percent dormancy (percentage of dormant plants—which are plants in which growth of small leaf buds with markings is not observed 15 days after a marking was applied to the leaf buds—with respect to the entirety of the test plants) was measured. As a result, in the control group, dormancy of the entire plants was observed.

Begonia sempaflorens = experiment: Growth promotion effect on Begonia sempaflorens; conditions: 80 μm aqueous solution, five consecutive days then once a week for six weeks; four months after last spraying; FIG. 10
Procedure: Two weeks after seeding of Begonia sempaflorens, spraying of an 80 μm specific ketol fatty acid (I) aqueous solution was carried out for five consecutive days. Furthermore, three months after the start of the test, spraying of an 80 μm specific ketol fatty acid (I) aqueous solution was carried out for six weeks (once a week). Four months after the last spraying, the leave size was measured.

lettuce = experiment: Growth promotion effect on lettuce; conditions: 50 μM aqueous solution sprayed five consecutive days
Procedure: One month after seeding of lettuce, spraying of a 50 μM specific ketol fatty acid (I) aqueous solution was carried out for five consecutive days, and growth of the lettuce (plant width) was observed.

broad bean = experiment: Growth promotion effect on broad bean; conditions: 50 μm aqueous solution sprayed five consecutive days
Procedure: One month after seeding of broad bean, spraying of a 50 μm specific ketol fatty acid (I) aqueous solution was carried out for five consecutive days, and growth of the broad bean (plant width) was observed.

chrysanthemum = experiment: Growth promotion effect on chrysanthemum; conditions: 80 μM aqueous solution, five consecutive days then once a week for six weeks; four months after the last spraying; FIG. 7
Procedure: Two weeks after seeding of chrysanthemum, spraying of an 80 μm specific ketol fatty acid (I) aqueous solution was carried out for five consecutive days. Furthermore, three months after the start of the test, spraying of an 80 μM specific ketol fatty acid (I) aqueous solution was carried out for six weeks (once a week). Bolting was not observed at a nutrition growth stage of the chrysanthemum. Four months after the last spraying, the plant width was measured.

Seeds of lettuce = experiment: Dry stress suppressive effect on lettuce seeds (germination); conditions: for Number of germinated seeds: 50 seeds per group; for Germination rate (%: n = 50): seeds immersed 72 hours, dried in air 48 hours
Procedure: Seeds of lettuce (50 seeds per test group) were immersed in specific ketol fatty acid (I) aqueous solutions [concentration: 2 μM, 10 μM, 20 μM, and 0 μM (control)] for 72 hours, and dried in air for 48 hours. The resultant seeds were disposed on water-containing filter paper, and allowed to germinate. In each test group, germination rate—percentage (%) of germinated seeds with respect to the entirety of seeds—was obtained.

CC/C=C\C/C=C\CC(=O)C(O)CCCCCCCC(=O)O (stereo not drawn) [specific ketol fatty acid (I), 9-hydroxy-10-oxo-12(Z),15(Z)-octadecadienoic acid]
optimum concentration of the aqueous solution for controlling growth of the third leaves ([1]; seed immersion, FIG. 13): 1 µM | heights of the seedlings (degree of growth promotion) ([1]; seeds immersed in 1 μM, 10 μM, 100 μM solutions at 30° C. for 1.5 days, six days after exposure, 18 seedlings, FIG. 12): commensurate with the application amount | growth of the third leaves (proportions of second and third leaves) ([1]; seeds immersed in 1, 10, 100 μM solutions, three weeks after light irradiation treatment, FIG. 13): exerts the effect of controlling growth of the third leaves | height of the plant [2]: becomes larger | bolting (Eustoma russellianum; 50 μm aqueous solution sprayed to rosette leaves five consecutive days, three months after seeding): bolting was observed immediately after the spraying | plant width (Eustoma russellianum; 50 μm aqueous solution, observed for 48 days): did not increase as had been expected | plant height (Eustoma russellianum; 50 μm aqueous solution, observed for 48 days, FIG. 4): continued to increase 48 days after observation of growth | number of leaves (cyclamen): increased | plant width (cyclamen): increased | formation of flower buds (strawberry seedlings; 10 μM and 100 μM aqueous solutions sprayed three times, cultured outdoors): flower bud formation proceeded, and the number of flowers increased | percent dormancy (strawberry seedlings; 10 μM and 100 μM sprayed, at the one hundred and eighth day, FIG. 14): dormancy of strawberry was prevented | dormancy preventive effect, low vs high concentration (strawberry seedlings; 10 μm vs 100 μM, FIG. 14): more significant in the group in which the specific ketol fatty acid (I) of low concentration (10 μm) was applied | leave size (Begonia sempaflorens): growth of the leaves is promoted | duration of growth promotion effect (lettuce): maintained 48 days after the start of the test | growth of the lettuce (plant width) (lettuce; one month after seeding, FIG. 2): exerts the effect of promoting growth of the lettuce | duration of growth promotion effect (broad bean): maintained 48 days after the start of the test | growth of the broad bean (plant width) (broad bean; one month after seeding, FIG. 3): exerts the effect of promoting growth of the broad bean | plant width (chrysanthemum): increased significantly | Number of germinated seeds (Seeds of lettuce; 2 μM): 43 | Germination rate (%: n = 50) (Seeds of lettuce; 2 μM): 86% | Number of germinated seeds (Seeds of lettuce; 10 μM): 49 | Germination rate (%: n = 50) (Seeds of lettuce; 10 μM): 98% | Number of germinated seeds (Seeds of lettuce; 20 μM): 45 | Germination rate (%: n = 50) (Seeds of lettuce; 20 μM): 90%
